Values joined by “and” are separate entries in the source; they are usually repeats but may differ in a detail not shown here. Equal entries are not always repeated.
Test system: human telomeric DNA G-quadruplex
Test: ESI-TOF-MS G-quadruplex binding assay
Settings: negative ESI-TOF-MS; 10 uM human telomeric DNA (27 nt) and 10 uM compound in 10 mM ammonium acetate; RBA = sum of complexes peaks areas / sum of G-quadruplex DNA peaks areas; means ± SD
Procedure: UV data were recorded using a Beckman DU 800 UV/vis spectrophotometer. HRESIMS were recorded on an Agilent 6230 ESI-TOF mass spectrometer. NMR spectra were obtained from Bruker Ascend™ 600 spectrometer equipped with a cyro platform. Silica gel (Devisil®, 40˜63 micron) was used for column chromatography. Silica gel plates (Merck, DC Kieselgel 60 F254) was used for TLC analysis. High-performance liquid chromatography (HPLC) was carried out on Agilent 1100, Agilent 1200 and Waters 1525-2489 apparatus with a semi-preparative column (Waters, XBridge® Prep C18, 5 μm, 250×10 mm). 27 nt human telomeric DNA (M monoisotopic=8492.4 Da, Invitrogen) was used for G-quadruplex binding assay, which was the same as the one applied in Bai, L. P. et al. PloS One 2013, 8, e53962. The G-quadruplex binding analysis was conducted on a Bruker maXis impact mass spectrometer equipped with a kdScientific syringe pump (Holliston, Mass., USA). Solvents for HPLC separation analysis were HPLC grade.
Electrospray ionization time-of-flight mass spectrometry (ESI-TOF-MS) experiments were conducted on a Bruker maXis impact mass spectrometer in the negative mode (Bai, L. P., Plos One, 2013, 8, e53962; Bai, L. P., Sci. Rep. 2014, 4, 6767). The ESI source parameters were set as follows: end plate offset voltage of 500 V, capillary voltage of 3000 V, nebulizer of 1.0 bar, dry gas flow of 4.0 L/min at 160° C. The flow rate of sample injection into the mass spectrometer was set at 3 uL/min by using a kdScientific syringe pump. Each mass spectrum was obtained by an average of at least 30 scans. The mixture of a final concentration of 10 uM nucleic acid, i.e. human telomeric DNA (27 nt) (M=8496.6 Da), and 10 uM phenanthroindolizidine alkaloid in 10 mM ammonium acetate was directly injected into mass spectrometer. Data were obtained from three parallel samples of nucleic acid-drug complex solution, and then analyzed with the software of Compass DataAnalysis.
ESI-TOF-MS was utilized to investigate the non-covalent binding capacity of compounds 1 to 7, i.e. compounds of Formulas (2) to (8) with human telomeric DNA G-quadruplex formed by the human telomeric sequence. The human telomeric sequence is known and disclosed in Bai, L. P. et al. PloS One 2013, 8, e53962. 13aS-tylophorine compound 8, i.e. compound of Formula (9):
[drawing 17] and reference G-quadruplex binder sanguinarine were used as control (Bai, L. P., Anal. Bioanal. Chem., 2008, 392, 709; Bai, L. P., Bioorg. Med. Chem., 2006, 14, 5439). […] The relative binding affinities (RBA) of tested compounds were calculated to evaluate their binding capacities to human telomeric DNA G-quadruplex using the equation: RBA=Σcomplexes peaks areas/ΣG-quadruplex DNA peaks areas

SMILES | Relative binding affinity (RBA)
COc1cc2c(cc1O)c1cc3[n+](cc1c1cc(OC)c(OC)cc21)CCC3 [compound 1, 2-demethyldehydrotylophorine] | 0.265 and 0.265 ± 0.008
COc1cc2c(cc1O)c1cc(O)ccc1c1cc3[n+](cc21)CCC3 [compound 2, 3-demethylanhydrodehydrotylophorinidine] | 0.122 and 0.122 ± 0.007
COc1cc2c(cc1O)c1cc(OC)c(O)cc1c1cc3[n+](cc21)CCC3 [compound 3, 2-hydroxylanhydrodehydrotylophorinidine] | 0.189 and 0.189 ± 0.002
COc1cc2c(cc1O)c1cc(OC)c(OC)cc1c1cc3[n+](cc21)CCC3 [compound 4, 6-demethyldehydrotylophorine] | 0.238 and 0.238 ± 0.010
COc1cc2c3cc(OC)c(OC)cc3c3c[n+]4c(cc3c2cc1OC)CCC4 [compound 5, dehydrotylophorine] | 0.290 and 0.290 ± 0.017
COc1ccc2c(c1)c1cc(O)c(OC)cc1c1c[n+]3c(cc21)CCC3 [compound 6, an hydrodehydrotylophorinidine] | 0.437 and 0.437 ± 0.019
COc1ccc2c(c1)c1cc(OC)c(OC)cc1c1c[n+]3c(cc21)CCC3 [compound 7, tylophoridicine D] | 0.619 and 0.619 ± 0.016
COc1cc2c3c(c4cc(OC)c(OC)cc4c2cc1OC)CN1CCC[C@H]1C3 [compound 8, 13aS-tylophorine, reference compound] | 0.168 and 0.168 ± 0.007

Same assay, conditions: ratio of RBA values

SMILES | potency in RBA value, times that of 3-demethyl analogue compound 2 | RBA value, times higher than that of 2-methoxylated/hydroxylated analogues compound 5 or 1
COc1ccc2c(c1)c1cc(O)c(OC)cc1c1c[n+]3c(cc21)CCC3 [compound 6, an hydrodehydrotylophorinidine] | at least 3 times | 
COc1ccc2c(c1)c1cc(OC)c(OC)cc1c1c[n+]3c(cc21)CCC3 [compound 7, tylophoridicine D] |  | at least 2 times
